Assays:
GB1^b-RhaR = molecular target: T1, GB1^b-RhaR (Escherichia coli, UniProt P09378); assay: EMSA in vitro DNA binding by GB1^b-RhaR; format: biochemical, E. coli
T1 construct: GB1basic (N); made in house; host or cells: E. coli ArcticExpress(DE3), pET21-derived plasmid
Excerpt: All proteins for this study were expressed in E. coli. Untagged CRP was purified by Ni^2+-affinity chromatography as described. Lad protein was purified by ammonium sulfate precipitation and phosphocellulose column chromatography as described. RhaS-GB1^201b and GB1^b-RhaR were purified by Ni^2+-affinity chromatography. Briefly, plasmids derived from pET21 and expressing RhaS-GB1^201b and GB1^b-RhaR were transformed into competent cells of strains Acella™ (MoBiTec, Gottingen, Germany) or ArcticExpress(DE3) (Agilent Technologies, Santa Clara Calif.), respectively. The cells were grown in 1 liter TY plus ampicillin and rhamnose. Gentamycin was also added for GB1^b-RhaR. The cells were grown to OD600 of 0.5, transferred to a 15° C. shaker, 0.1 mM IPTG was added, and then incubated overnight. Cells were harvested by centrifugation and then resuspended in 30 mL of cold binding buffer (20 mM Tris, 500 mM NaCl, 5 mM imidazole, pH 7.9) plus L-rhamnose. Cells were lysed by three cycles of freeze thaw [with addition of lysozyme (0.4 mg/mL), tris(2-carboxyethyl)phosphine (TCEP, 1 mM) and phenylmethylsulfonyl fluoride (PMSF, 1 mM), at −80° C.] followed by sonication, and then centrifuged to remove cell debris. The supernatant was applied using an AKTAexplorer FPLC (GE Healthcare) to a 5 mL HiTrap Chelating HP column (GE Healthcare) that had been charged with 50 mM NiSO4, and equilibrated with 15 mL H2O and then 15 mL binding buffer. After loading, the column was washed with 25 mL binding buffer, then 25 mL wash buffer (binding buffer, but with 60 mM imidazole) plus L-rhamnose. A 10 mL gradient of binding buffer with 60 mM to 250 mM imidazole from was run and then 15 mL of elution buffer (binding buffer, but with 250 mM imidazole). […]
IRD700- and DY682-labeled oligos were from Eurofins MWG Operon. […] EMSA gels were imaged using an Odyssey infrared imager (LI-COR, Lincoln, Nebr.), and quantified using the Odyssey software, version 3.0.30. […] Inhibition values were calculated and graphs were drawn as for in vivo dose-response experiments.

[1] = tested on: Shigella invasion of HeLa cells; assay: Shigella invasion of HeLa cells; format: cell-based, Shigella flexneri strain M90T; conditions: bacteria grown with compound before addition to cells
Description: We assayed the effect of Compound 1 on the interaction of Shigella with cultured human epithelial cells. Shigella flexneri strain M90T was grown to maximize type III secretion system [Shigella] expression. Shigella was assayed for invasion of HeLa cells. The bacterial cells were grown in the presence of Compound 1 prior to addition to tissue culture wells. Invasion assays involved, briefly, incubation of Shigella cells in tissue culture wells, washing to remove non-adherent bacteria, addition of gentamycin to kill bacterial cells that had not invaded the epithelial cells, trypsin treatment to dislodge epithelial cells, serial dilutions and plating on LB to enumerate bacterial colonies

T1 sequence (P09378 whole entry): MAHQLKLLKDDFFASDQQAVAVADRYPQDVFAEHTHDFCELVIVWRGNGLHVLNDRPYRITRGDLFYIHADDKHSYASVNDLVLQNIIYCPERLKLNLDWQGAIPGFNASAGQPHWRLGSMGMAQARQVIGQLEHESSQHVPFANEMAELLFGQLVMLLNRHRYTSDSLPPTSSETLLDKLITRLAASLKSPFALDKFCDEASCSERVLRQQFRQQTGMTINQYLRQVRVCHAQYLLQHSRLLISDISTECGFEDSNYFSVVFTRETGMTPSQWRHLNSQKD

CCCCN1C=C(c2ccc3ccccc3n2)C(C[N+](=O)[O-])c2ccccc21 (stereo not shown) [Compound 1, 1-butyl-4-(nitromethyl)-3-quinolin-2-yl-4H-quinoline]
IC50 (GB1^b-RhaR): ~140 µM | concentration for 50% inhibition of GB1^b-RhaR relative to RhaS-GB1^201b (GB1^b-RhaR): two-fold higher | inhibition of GB1^b-RhaR binding to DNA (GB1^b-RhaR): fully inhibit | ability of Shigella to invade human epithelial cells [1]: reduced

— patent US20140088144A1, “INHIBITING MICROBIAL INFECTIONS” (THE UNIVERSITY OF KANSAS, priority 2012, published 2014)
